Experimental data reported in US20070117743A1, “New antitumoral compounds” (priority 2003, published 2007).
Where a SMILES comes first, the peptide text is derived from it. Bridges are numbered along the chain shown (N, C = ends). [ ]: non-standard residue; d: D form. The star is where a group is joined. Bip = N[C@@H](Cc1ccc(-c2ccccc2)cc1)C(=O)O; d(aIle) = CC[C@H](C)[C@@H](N)C(=O)O; d(aThr) = C[C@@H](O)[C@@H](N)C(=O)O; Hexanoyl(5-Me) = CC(C)CCCC(=O)*; Phg = N[C@H](C(=O)O)c1ccccc1; Orn = NCCC[C@H](N)C(=O)O; Dhb = C/C=C(\N)C(=O)O

What was measured:
Format in all cases: cell-based, human
[1] = system: HeLa-APL; assay: SRB colorimetric assay of cell growth and viability, HeLa-APL; conditions: HELA-APL, 48 hours exposure; for CC50: read-out: LC50 HELA-APL
[2] = system: LoVo; assay: SRB colorimetric assay of cell growth and viability, LoVo; conditions: LOVO, 48 hours exposure; for CC50: read-out: LC50 LOVO
[3] = system: IGROV-ET; assay: SRB colorimetric assay of cell growth and viability, IGROV-ET; conditions: IGROV-ET, 48 hours exposure; for CC50: read-out: LC50 IGROV-ET
[4] = system: SK-BR-3; assay: SRB colorimetric assay of cell growth and viability, SK-BR-3; conditions: SK-BR-3; 48 hours exposure
[5] = system: IGROV-1; assay: SRB colorimetric assay of cell growth and viability, IGROV-1; conditions: IGROV; 48 hours exposure
[6] = system: LoVo-Dox; assay: SRB colorimetric assay of cell growth and viability, LoVo-Dox; conditions: LOVO-DOX, 48 hours exposure; for CC50: read-out: LC50 LOVO-DOX
Outline: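 SRB staining (0.4% wt/vol in 1% acetic acid, 10 min, room temperature) of cells fixed with 50% TCA follows a 48-hour exposure to compound. Plating density is 5×10^3 cells/well, and the OD is taken at 490 nm.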

[7] = system: PANC-1; assay: SRB colorimetric assay of cell growth and viability, PANC-1; conditions: PANC-1, 48 hours exposure; for CC50: read-out: LC50 PANC-1
[8] = system: HeLa; assay: SRB colorimetric assay of cell growth and viability, HeLa; conditions: HELA, 48 hours exposure; for CC50: read-out: LC50 HELA
[9] = system: K-562; assay: SRB colorimetric assay of cell growth and viability, K-562; conditions: K-562, 48 hours exposure; for CC50: read-out: LC50 K-562
[10] = system: DU-145; assay: SRB colorimetric assay of cell growth and viability, DU-145; conditions: DU-145; 48 hours exposure
[11] = system: SK-MEL-28; assay: SRB colorimetric assay of cell growth and viability, SK-MEL-28; conditions: MEL-28, 48 hours exposure; for CC50: read-out: LC50 MEL-28
[12] = system: A-549; assay: SRB colorimetric assay of cell growth and viability, A-549; conditions: A-549, 48 hours exposure; for GI50: read-out: GI50 A-549; for CC50: read-out: LC50 A-549
[13] = system: HT-29; assay: SRB colorimetric assay of cell growth and viability, HT-29; conditions: HT-29, 48 hours exposure; for GI50: read-out: GI50 HT-29; for CC50: read-out: LC50 HT-29

Structure (SMILES) | GI50 [1] [nM] | TGI HELA-APL [1] [Molar] | CC50 [1] [nM] | GI50 [2] [nM] | TGI LOVO [2] [Molar] | CC50 [2] [nM] | GI50 [3] [nM] | TGI IGROV-ET [3] [Molar] | CC50 [3] [nM] | GI50 [4] [nM] | LC50 [4] [nM] | TGI SK-BR-3 [4] [Molar] | GI50 [5] [nM] | LC50 (concentration causing 50% net cell killing) [5] [nM] | TGI IGROV [5] [Molar] | GI50 [6] [nM] | TGI LOVO-DOX [6] [Molar] | CC50 [6] [nM] | GI50 [7] [nM] | TGI PANC-1 [7] [Molar] | further results
C/C=C1\NC(=O)[C@H](Cc2ccc(-c3ccccc3)cc2)NC(=O)[C@@H](C(C)C)NC(=O)[C@@H]([C@@H](C)CC)NC(=O)[C@H](NC(=O)[C@H](NC(=O)[C@H](CCCN)NC(=O)[C@H]2CCCN2C(=O)[C@H](NC(=O)[C@@H](NC(=O)[C@@H](NC(=O)[C@H](NC(=O)CCCC(C)C)C(C)C)[C@@H](C)O)C(C)C)C(C)C)[C@@H](C)CC)[C@@H](C)OC(=O)[C@H](C(C)C)NC1=O [Compound 86, [Bip^3]-KF] ({Hexanoyl(5-Me)}-[dV]TV[dV][dP][Orn][d(aIle)][d(aThr)][d(aIle)][dV][Bip][Dhb]V; ester 8-C) | 424 | 1.65E−06 | 6070 | 63.7 | 2.89E−07 | 4680 | 150 | 1.00E−06 | ≥ 6430 | 28.9 | 5070 | 1.79E−07 | 181 | ≥ 6430 | 5.23E−07 | 73.3 | 2.69E−07 | ≥ 6430 | 984 | 2.17E−06 | CC50 [7]: 4770 nM; GI50 [8]: 177 nM; TGI HELA [8]: 8.17E−07 Molar; CC50 [8]: 3900 nM; GI50 [9]: 1100 nM; TGI K-562 [9]: 2.32E−06 Molar; CC50 [9]: 4870 nM; GI50 [10]: 124 nM; LC50 (concentration causing 50% net cell kill) [10]: 527 nM; TGI DU-145 [10]: 2.56E−07 Molar; GI50 [11]: 183 nM; TGI MEL-28 [11]: 4.11E−07 Molar; CC50 [11]: 2480 nM; TGI A-549 [12]: 2.87E−07 Molar; GI50 [12]: 125 nM; CC50 [12]: 810 nM; TGI HT-29 [13]: 3.73E−07 Molar; GI50 [13]: 129 nM; CC50 [13]: 5070 nM
C/C=C1\NC(=O)[C@H](c2ccccc2)NC(=O)[C@@H](C(C)C)NC(=O)[C@@H]([C@@H](C)CC)NC(=O)[C@H](NC(=O)[C@H](NC(=O)[C@H](CCCN)NC(=O)[C@H]2CCCN2C(=O)[C@H](NC(=O)[C@@H](NC(=O)[C@@H](NC(=O)[C@H](NC(=O)CCCC(C)C)C(C)C)[C@@H](C)O)C(C)C)C(C)C)[C@@H](C)CC)[C@@H](C)OC(=O)[C@H](C(C)C)NC1=O [Compound 87, [Phg^3]-KF] ({Hexanoyl(5-Me)}-[dV]TV[dV][dP][Orn][d(aIle)][d(aThr)][d(aIle)][dV][Phg][Dhb]V; ester 8-C) | 1900 | 1.90E−06 | 1900 | 957 | 1.90E−06 | 1900 | 1290 | 1.90E−06 | 1900 | 748 | 1870 | 1.19E−06 | 919 | 1900 | 1.90E−06 | 513 | 1.32E−06 | 1900 | 1900 | 1.90E−06 | CC50 [7]: 1900 nM; GI50 [8]: 1900 nM; TGI HELA [8]: 1.90E−06 Molar; CC50 [8]: 1900 nM; GI50 [9]: 1900 nM; TGI K-562 [9]: 1.90E−06 Molar; CC50 [9]: 1900 nM; GI50 [10]: 1900 nM; LC50 (concentration causing 50% net cell kill) [10]: 1900 nM; TGI DU-145 [10]: 1.90E−06 Molar; GI50 [11]: 1900 nM; TGI MEL-28 [11]: 1.90E−06 Molar; CC50 [11]: 1900 nM; TGI A-549 [12]: 1.90E−06 Molar; GI50 [12]: 1900 nM; CC50 [12]: 1900 nM; TGI HT-29 [13]: 1.90E−06 Molar; GI50 [13]: 1580 nM; CC50 [13]: 1900 nM
